Data reported in patent US11535606B2, “Substituted quinoline-8-carbonitrile derivatives with androgen receptor degradation activity and uses thereof” (ACCUTAR BIOTECHNOLOGY INC., priority 2019, dated 2022).
Substitutions are numbered along the chain they refer to.

Assays:
[1] = target: T1, androgen receptor (AR) (Homo sapiens, UniProt P10275); test: AR degradation activity in VCAP cells (Western blot); format: cell-based; settings: 24 hours after administration, DC50 = concentration needed for 50% target protein degradation
T1 construct: endogenous in cells; host or cells: VCAP
T1 sequence (P10275 1-920): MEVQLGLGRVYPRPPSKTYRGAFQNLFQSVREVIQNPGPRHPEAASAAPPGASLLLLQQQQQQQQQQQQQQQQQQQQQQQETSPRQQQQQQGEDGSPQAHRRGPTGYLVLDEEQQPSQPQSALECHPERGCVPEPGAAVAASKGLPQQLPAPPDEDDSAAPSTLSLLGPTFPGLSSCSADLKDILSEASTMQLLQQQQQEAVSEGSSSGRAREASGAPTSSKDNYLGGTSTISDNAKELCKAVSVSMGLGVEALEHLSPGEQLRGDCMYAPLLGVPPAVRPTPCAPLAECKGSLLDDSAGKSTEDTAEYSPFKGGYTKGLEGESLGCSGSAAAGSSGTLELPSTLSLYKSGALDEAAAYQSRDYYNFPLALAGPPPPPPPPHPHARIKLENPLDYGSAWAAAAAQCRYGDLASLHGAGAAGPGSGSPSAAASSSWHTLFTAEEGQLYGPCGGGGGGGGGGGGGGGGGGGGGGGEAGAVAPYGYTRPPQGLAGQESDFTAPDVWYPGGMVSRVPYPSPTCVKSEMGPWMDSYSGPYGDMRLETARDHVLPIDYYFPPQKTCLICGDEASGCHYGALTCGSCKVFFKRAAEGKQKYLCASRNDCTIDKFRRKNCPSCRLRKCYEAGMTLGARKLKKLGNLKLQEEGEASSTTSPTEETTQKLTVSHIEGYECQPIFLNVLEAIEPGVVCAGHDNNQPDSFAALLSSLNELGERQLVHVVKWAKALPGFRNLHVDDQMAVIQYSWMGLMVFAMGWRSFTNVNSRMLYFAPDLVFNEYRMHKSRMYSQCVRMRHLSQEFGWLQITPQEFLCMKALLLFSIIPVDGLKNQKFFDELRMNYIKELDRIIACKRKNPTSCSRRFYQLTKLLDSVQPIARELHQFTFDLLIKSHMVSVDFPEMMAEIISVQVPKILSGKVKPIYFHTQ
Experimental: (§1) LNCAP, VCAP and 22Rv1 cells were plated in 24-well plates at 1.5×10E5 cells/well in the RPMI growth medium containing 10% FBS and 1% Penicillin Streptomycin, and then incubated at 37° C. overnight. The following day, the test compound was administered to the cells by using 1000× compound stock solution prepared in DMSO at various concentrations. After administration of the compound, the cells were then incubated at 37° C. for 24 hours. Upon completion, the cells were washed with PBS and protein was collected in Laemmli sample buffer (1×; VWR International). Proteins in cell lysate were separated by SDS-PAGE and transferred to Odyssey nitrocellulose membranes (Licor) with Iblot® dry blotting transfer system (ThermoFisher). Nonspecific binding was blocked by incubating membranes with Intercept Blocking Buffer (Licor) for 1 hour at room temperature with gentle shaking. The membranes were then incubated overnight at 4° C. with Primary antibodies rabbit anti-AR (1:1,000, Cell Signaling, 5153) and mouse anti-GAPDH (1:5,000, Santa Cruz Biotechnology, sc-47724) diluted in Intercept Blocking Buffer containing 0.1% Tween 20. After washing 3 times with TBS-T, the membranes were incubated with IRDye® 800CW goat anti-mouse IgG (1:20,000, Licor) or IRDye® 800CW goat anti-rabbit IgG (1:20,000, Licor) for 1 hour. After TBS-T washes, membranes were rinsed in TBS and scanned on Odyssey® CLx Imaging System (Licor). The bands were quantified using Image Studio™ Software (Licor).
(§2) Table 4 summarizes the androgen receptor (AR) degradative activity of exemplary compounds in LNCAP, VCAP and 22Rv1 cell lines 24 hours after administration. DC50: compound concentration needed for 50% target protein degradation.

[2] = target: T2, androgen receptor (AR) (Homo sapiens, UniProt P10275, T878A); test: AR degradation activity in LNCAP cells (Western blot); format: cell-based; settings: 24 hours after administration, DC50 = concentration needed for 50% target protein degradation
T2 construct: endogenous in cells; host or cells: LNCAP
T2 sequence (P10275 1-920 T878A): T1 sequence (P10275 1-920) with T878A
Experimental: as §1, §2

SMILES | DC50 [1] | DC50 [2]
N#Cc1ccc(O[C@H]2CC[C@H](NC(=O)c3ccc(N4CCC(CN5CCN(c6ccc7c(c6)C(=O)N(C6CCC(=O)NC6=O)C7=O)CC5)CC4)nc3)CC2)c2cccnc12 (relative stereo) [Compound 3-13, trans-N-(4-((8-cyanoquinolin-5-yl)oxy)cyclohexyl)-6-(4-((4-(2-(2,6-dioxopiperidin-3-yl)-1,3-dioxoisoindolin-5-yl)piperazin-1-yl)methyl)piperidin-1-yl)nicotinamide] | < 10 nM | < 10 nM
N#Cc1ccc(O[C@H]2CC[C@H](NC(=O)c3ccc(N4CCC(CCN5CCN(c6ccc7c(c6)C(=O)N(C6CCC(=O)NC6=O)C7=O)CC5)CC4)cc3)CC2)c2cccnc12 (relative stereo) [Compound 3-22, trans-N-(4-((8-cyanoquinolin-5-yl)oxy)cyclohexyl)-4-(4-(2-(4-(2-(2,6-dioxopiperidin-3-yl)-1,3-dioxoisoindolin-5-yl)piperazin-1-yl)ethyl)piperidin-1-yl)benzamide] | < 10 nM | < 10 nM
CN(CC1CCN(c2ccc(C(=O)NC3CCC(Oc4ccc(C#N)c5ncccc45)CC3)cn2)CC1)C1CC(Oc2ccc3c(c2)C(=O)N(C2CCC(=O)NC2=O)C3=O)C1 (centres unmarked) [Compound 3-9] | – | < 10 nM
CC(C)N(CC1CCN(c2ccc(C(=O)NC3CCC(Oc4ccc(C#N)c5ncccc45)CC3)cn2)CC1)C1CC(Oc2ccc3c(c2)C(=O)N(C2CCC(=O)NC2=O)C3=O)C1 (centres unmarked) [Compound 3-11] | – | < 10 nM
N#Cc1ccc(O[C@H]2CC[C@H](NC(=O)c3cnc(N4CCC(CN5CCN(c6ccc7c(c6)C(=O)N(C6CCC(=O)NC6=O)C7=O)CC5)CC4)nc3)CC2)c2cccnc12 (stereo partly drawn) [Compound 3-15, trans-N-(4-((8-cyanoquinolin-5-yl)oxy)cyclohexyl)-2-(4-((4-(2-(2,6-dioxopiperidin-3-yl)-1,3-dioxoisoindolin-5-yl)piperazin-1-yl)methyl)piperidin-1-yl)pyrimidine-5-carboxamide] | < 10 nM | < 10 nM
N#Cc1ccc(O[C@H]2CC[C@H](NC(=O)c3ccc(N4CCC(CN5CCN(c6ccc7c(c6)C(=O)N(C6CCC(=O)NC6=O)C7=O)CC5)CC4)nn3)CC2)c2cccnc12 (stereo partly drawn) [Compound 3-16, trans-N-(4-((8-cyanoquinolin-5-yl)oxy)cyclohexyl)-6-(4-((4-(2-(2,6-dioxopiperidin-3-yl)-1,3-dioxoisoindolin-5-yl)piperazin-1-yl)methyl)piperidin-1-yl)pyridazine-3-carboxamide] | < 10 nM | < 10 nM
N#Cc1ccc(OC2CCC(NC(=O)c3cnc(N4CCC(CN5CCN(c6ccc7c(c6)C(=O)N(C6CCC(=O)NC6=O)C7=O)CC5)CC4)cn3)CC2)c2cccnc12 (centres unmarked) [Compound 3-17] | – | < 10 nM
N#Cc1ccc(O[C@H]2CC[C@H](NC(=O)c3ccc(N4CCC(CN5CCN(c6ccc7c(c6)C(=O)N(C6CCC(=O)NC6=O)C7=O)CC5)CC4)cc3)CC2)c2cccnc12 (some centres unmarked) [Compound 3-18, N-(4-((8-cyanoquinolin-5-yl)oxy)cyclohexyl)-4-(4-((4-(2-(2,6-dioxopiperidin-3-yl)-1,3-dioxoisoindolin-5-yl)piperazin-1-yl)methyl)piperidin-1-yl)benzamide] | < 10 nM | < 10 nM
N#Cc1ccc(OC2CCC(NC(=O)c3ccc(N4CCC(CN5CCN(c6ccc7c(c6)C(=O)N(C6CCC(=O)NC6=O)C7=O)CC5)CC4)c(F)c3)CC2)c2cccnc12 (centres unmarked) [Compound 3-19, N-(4-((8-cyanoquinolin-5-yl)oxy)cyclohexyl)-4-(4-((4-(2-(2,6-dioxopiperidin-3-yl)-1,3-dioxoisoindolin-5-yl)piperazin-1-yl)methyl)piperidin-1-yl)-3-fluorobenzamide] | < 10 nM | < 10 nM
N#Cc1ccc(OC2CCC(NC(=O)c3cnc(N4CCC(CN5CCN(c6ccc7c(c6)CN([C@H]6CCC(=O)NC6=O)C7=O)CC5)CC4)nc3)CC2)c2cccnc12 (some centres unmarked) [Compound 3-30] | < 10 nM | < 10 nM
N#Cc1ccc(OC2CCC(NC(=O)c3ccc(N4CCC(CN5CCN(c6cc7c(cc6F)C(=O)N(C6CCC(=O)NC6=O)C7=O)CC5)CC4)nc3)CC2)c2cccnc12 (centres unmarked) [Compound 3-35] | – | < 10 nM
CC(C)N(CC1CCN(c2ccc(C(=O)NC3CCC(Oc4ccc(C#N)c5ncccc45)CC3)nn2)CC1)C1CC(Oc2ccc3c(c2)C(=O)N(C2CCC(=O)NC2=O)C3=O)C1 (centres unmarked) [Compound 3-43] | – | < 10 nM
N#Cc1ccc(OC2CCC(NC(=O)c3ccc(N4CCC(CN5CCN(c6cc7c(cc6F)C(=O)N(C6CCC(=O)NC6=O)C7=O)CC5)CC4)cc3)CC2)c2cccnc12 (centres unmarked) [Compound 3-49] | – | > 100 nM
N#Cc1ccc(OC2CCC(NC(=O)c3ccc(N4CCC(CN5CCN(c6cc7c(cc6F)C(=O)N(C6CCC(=O)NC6=O)C7=O)CC5)CC4)c(F)c3)CC2)c2cccnc12 (centres unmarked) [Compound 3-50] | – | < 10 nM
N#Cc1ccc(OC2CCC(NC(=O)c3cnc(N4CCC(CN5CCN(c6cc7c(cc6F)C(=O)N(C6CCC(=O)NC6=O)C7=O)CC5)CC4)nc3)CC2)c2cccnc12 (centres unmarked) [Compound 3-51] | – | < 10 nM
N#Cc1ccc(OC2CCC(NC(=O)c3cnc(N4CCC(CN5CCN(c6cc7c(cc6F)C(=O)N(C6CCC(=O)NC6=O)C7=O)CC5)CC4)cn3)CC2)c2cccnc12 (centres unmarked) [Compound 3-52] | – | < 10 nM
N#Cc1ccc(O[C@H]2CC[C@H](NC(=O)c3cnc(N4CCC(CN5CCN(c6cc7c(cc6F)C(=O)N(C6CCC(=O)NC6=O)C7=O)CC5)CC4)c(F)c3)CC2)c2cccnc12 (some centres unmarked) [Compound 3-53] | – | < 10 nM
N#Cc1ccc(O[C@H]2CC[C@H](NC(=O)c3cnc(N4CC[C@@H](CN5CCN(c6ccc7c(c6)C(=O)N(C6CCC(=O)NC6=O)C7=O)CC5)C4)nc3)CC2)c2cccnc12 (some centres unmarked) [Compound 3-54] | – | < 10 nM
N#Cc1ccc(O[C@H]2CC[C@H](NC(=O)c3cnc(N4CC[C@H](CN5CCN(c6ccc7c(c6)C(=O)N(C6CCC(=O)NC6=O)C7=O)CC5)C4)nc3)CC2)c2cccnc12 (some centres unmarked) [Compound 3-55] | – | < 10 nM
